# Source: article PMC3163380, “Design, Synthesis and Biological Evaluation of Novel Pyrimido[4,5-d]pyrimidine CDK2 Inhibitors as Anti-Tumor Agents” (Scientia Pharmaceutica, 2011)
# Legend:
# IGROV1 = assay: NCI primary anti-cancer assay (SRB), IGROV1; format: cell-based; conditions: Homo sapiens, IGROV-1; 10^−5M; Ovarian Cancer IGROV1; read-out: Growth Inhibition %
# Experimental: (§1) Evaluation of anti-cancer activities on pyrimido[4,5-d]pyrimidine derivatives were performed at the National Cancer Institute (NCI) USA. First the newly synthesized compounds have been evaluated in primary anti-cancer assay at 10^−5M concentration against 60 human tumor cell lines then the active compounds were tested at 5 different concentrations against the same 60 human tumor cell lines. The biological data for the newly synthesized compounds are compiled in table 2
# (§2) The cytotoxic activity was measured in vitro for the newly synthesized compounds using the SulfoRhodamine-B stain (SRB) assay using the method of Skehan. Cells were plated in 96-multiwell microtiter plate (10^4 cells/well) for 24 h before treatment with the compound(s) to allow attachment of cell to the wall of the plate. Tested compounds were dissolved in DMSO and diluted with saline to the appropriate volume. Triplicate wells were prepared for each individual dose. Monolayer cells were incubated with the compound(s) for 48 h at 37 °C and in atmosphere of 5% CO2. After 48 h, cells were fixed, washed, and stained for 30 min with 0.4% (wt/vol) with SRB dissolved in 1% acetic acid. Unbound dye was removed by four washes with 1% acetic acid, and attached stain was recovered with Tris-EDTA buffer. Color intensity was measured in an ELISA reader. The relation between surviving fraction and drug concentration is plotted to get the survival curve for tumor cell line after the specified time.
# UO-31 = assay: NCI primary anti-cancer assay (SRB), UO-31; format: cell-based; conditions: Homo sapiens; 10^−5M; Renal Cancer UO-31; read-out: Growth Inhibition %
# Experimental: as §1, §2
# CDK2/CyclinA = molecular target: T1, CDK2/CyclinA (Homo sapiens, UniProt P24941); assay: CDK2/cyclinA enzymatic activity inhibition assay (32P-ATP, histone H1); format: biochemical; conditions: mean of at least two independent experiments
# T1 construct: hexa-histidine (N); made in house; host or cells: sf21 insect cells (baculovirus)
# [1] = molecular target: T2, human EGFR tyrosine kinase domain (Homo sapiens, UniProt P00533); assay: EGFR tyrosine kinase inhibition assay; format: biochemical; conditions: mean of at least two independent experiments
# T2 construct: C-terminal human EGFR tyrosine kinase domain
# [2] = test system: 60 human tumor cell lines; assay: NCI primary anti-cancer assay, summary over tumor cell lines; format: cell-based; conditions: 10^−5M, Non-small cell lung cancer, Ovarian cancer, Leukemia and Melanoma lines / different tumor cell lines, read-out: growth inhibitions (range over cell lines)
# Experimental: as §1, §2
# CDK4/CyclinD = CDK4/CyclinD (Homo sapiens, UniProt P11802); assay: CDK4/CyclinD inhibition assay; format: biochemical; conditions: mean of at least two independent experiments
# RPMI-8226 = assay: NCI primary anti-cancer assay (SRB), RPMI-8226; format: cell-based; conditions: Homo sapiens; 10^−5M; Leukemia RPMI-8226; read-out: Growth Inhibition %
# Experimental: as §1, §2
# A549/ATCC = assay: NCI primary anti-cancer assay (SRB), A549/ATCC; format: cell-based; conditions: Homo sapiens; 10^−5M; Non-Small Cell Lung Cancer A549/ATCC; read-out: Growth Inhibition %
# Experimental: as §1, §2
# UACC-257 = assay: NCI primary anti-cancer assay (SRB), UACC-257; format: cell-based; conditions: Homo sapiens; 10^−5M; Melanoma UACC-257; read-out: Growth Inhibition %
# Experimental: as §1, §2
# MOLT-4 = assay: NCI primary anti-cancer assay (SRB), MOLT-4; format: cell-based; conditions: Homo sapiens; 10^−5M; Leukemia MOLT-4; read-out: Growth Inhibition %
# Experimental: as §1, §2
# EKVX = assay: NCI primary anti-cancer assay (SRB), EKVX; format: cell-based; conditions: Homo sapiens; 10^−5M; Non-Small Cell Lung Cancer EKVX; read-out: Growth Inhibition %
# Experimental: as §1
# as §2, with “The relation between surviving fraction and drug concentration is plotted to get the survival curve for tumor cell line after the specified time.” left out
# BT-549 = assay: NCI primary anti-cancer assay (SRB), BT-549; format: cell-based; conditions: Homo sapiens; 10^−5M; Breast Cancer BT-549; read-out: Growth Inhibition %
# Experimental: as §1
# as §2, with “The relation between surviving fraction and drug concentration is plotted to get the survival curve for tumor cell line after the specified time.” left out
# HOP-92 = assay: NCI primary anti-cancer assay (SRB), HOP-92; format: cell-based; conditions: Homo sapiens; 10^−5M; Non-Small Cell Lung Cancer HOP-92; read-out: Growth Inhibition %
# Experimental: as §1, §2
# HL-60(TB) = assay: NCI primary anti-cancer assay (SRB), HL-60(TB); format: cell-based; conditions: Homo sapiens; 10^−5M; Leukemia HL-60(TB); read-out: Growth Inhibition %
# Experimental: as §1, §2
# OVCAR-8 = assay: NCI primary anti-cancer assay (SRB), OVCAR-8; format: cell-based; conditions: Homo sapiens; 10^−5M; Ovarian Cancer OVCAR-8; read-out: Growth Inhibition %
# Experimental: as §1, §2
# K-562 = assay: NCI primary anti-cancer assay (SRB), K-562; format: cell-based; conditions: Homo sapiens, K562; 10^−5M; Leukemia K-562; read-out: Growth Inhibition %
# Experimental: as §1, §2
# MDA-MB-231/ATCC = assay: NCI primary anti-cancer assay (SRB), MDA-MB-231/ATCC; format: cell-based; conditions: Homo sapiens; 10^−5M; Breast Cancer MDA-MB-231/ATCC; read-out: Growth Inhibition %
# Experimental: as §1, §2
# SF-539 = assay: NCI primary anti-cancer assay (SRB), SF-539; format: cell-based; conditions: Homo sapiens; 10^−5M; CNS Cancer SF-539; read-out: Growth Inhibition %
# Experimental: as §1, §2
# MCF7 = assay: NCI primary anti-cancer assay (SRB), MCF7; format: cell-based; conditions: Homo sapiens; 10^−5M; Breast Cancer MCF7; read-out: Growth Inhibition %
# Experimental: as §1
# as §2, with “The relation between surviving fraction and drug concentration is plotted to get the survival curve for tumor cell line after the specified time.” left out
# HS 578T = assay: NCI primary anti-cancer assay (SRB), HS 578T; format: cell-based; conditions: Homo sapiens; 10^−5M; Breast Cancer HS 578T; read-out: Growth Inhibition %
# Experimental: as §1, §2
# Sequence of CDK4/CyclinD (P11802 whole entry, species assumed): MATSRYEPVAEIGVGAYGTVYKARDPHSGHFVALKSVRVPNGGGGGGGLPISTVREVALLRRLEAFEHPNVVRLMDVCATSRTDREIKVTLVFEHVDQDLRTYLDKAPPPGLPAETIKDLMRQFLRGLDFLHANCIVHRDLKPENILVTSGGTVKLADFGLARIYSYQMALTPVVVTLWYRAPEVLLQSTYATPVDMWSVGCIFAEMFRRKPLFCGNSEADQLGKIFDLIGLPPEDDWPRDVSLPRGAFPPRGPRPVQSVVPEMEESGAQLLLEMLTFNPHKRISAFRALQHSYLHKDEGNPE
# Sequence of CDK4/CyclinD (P24385 whole entry partner, species assumed): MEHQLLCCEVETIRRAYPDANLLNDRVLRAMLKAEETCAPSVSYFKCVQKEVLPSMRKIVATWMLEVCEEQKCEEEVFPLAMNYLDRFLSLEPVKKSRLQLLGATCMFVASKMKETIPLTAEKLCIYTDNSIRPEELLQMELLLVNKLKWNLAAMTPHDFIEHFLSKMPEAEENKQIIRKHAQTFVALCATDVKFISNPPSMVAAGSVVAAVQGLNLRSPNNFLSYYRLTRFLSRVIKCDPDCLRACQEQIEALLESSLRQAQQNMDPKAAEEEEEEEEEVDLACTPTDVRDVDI
# T2 sequence (P00533 712-979 limits assumed): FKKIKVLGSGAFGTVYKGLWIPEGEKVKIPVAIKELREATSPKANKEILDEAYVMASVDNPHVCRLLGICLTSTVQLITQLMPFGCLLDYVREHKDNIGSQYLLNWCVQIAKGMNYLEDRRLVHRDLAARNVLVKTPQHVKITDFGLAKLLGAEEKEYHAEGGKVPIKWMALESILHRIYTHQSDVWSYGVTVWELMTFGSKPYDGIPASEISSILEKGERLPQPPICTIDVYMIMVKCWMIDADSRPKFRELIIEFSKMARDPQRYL
Compound,inhibition at 10 µM (IGROV1),inhibition at 10 µM (UO-31),IC50 (CDK2/CyclinA),IC50 [1],inhibition at 10 µM [2],IC50 (CDK4/CyclinD),inhibition at 10 µM (RPMI-8226),melting point,inhibition at 10 µM (MOLT-4),inhibition at 10 µM (EKVX),inhibition at 10 µM (HOP-92),inhibition at 10 µM (HL-60(TB)),other results
"O=c1[nH]c(NCc2ccccc2)nc2nc(Nc3ccc(NC(=S)Nc4ccccc4)cc3)nc(-c3ccc(O)cc3O)c12 [Compound 7a, 1-(4-{[7-(Benzylamino)-4-(2,4-dihydroxyphenyl)-5-oxo-5,6-dihydropyrimido[4,5-d]pyrimidin-2-yl]amino}phenyl)-3-phenylthiourea]",29.7%,21.4%,0.31 µM,> 10 µM,50 to 70%,3.33 µM,22.6%,> 300 °C,36.7%,36.8%,,,inhibition at 10 µM (A549/ATCC): 58.4%; inhibition at 10 µM (UACC-257): 60.3%
"Cc1nc(Nc2ccc(NC(=S)Nc3ccccc3)cc2)nc2nc(Nc3ccc(S(=O)(=O)O)cc3)[nH]c(=O)c12 [Compound 7h, 4-{[5-Methyl-4-oxo-7-({4-[(phenylcarbamothioyl)amino]phenyl}amino)-3,4-dihydropyrimido[4,5-d]pyrimidin-2-yl]amino}benzenesulfonic acid]",28%,21.1%,6 µM,> 10 µM,50 to 70%,> 10 µM,52.5%,> 300 °C,20.8%,,24.3%,29%,inhibition at 10 µM (BT-549): 39%; IC50 CDK4/CyclinD (CDK4/CyclinD): no activity; inhibition at 10 µM (OVCAR-8): 50.2%
"Cc1nc(Nc2ccc(NC(=S)Nc3ccccc3)cc2)nc2nc(NCc3ccccc3)[nH]c(=O)c12 [Compound 7b, 1-(4-{[7-(Benzylamino)-4-methyl-5-oxo-5,6-dihydropyrimido[4,5-d]pyrimidin-2-yl]amino}-phenyl)-3-phenylthiourea]",,,0.86 µM,> 10 µM,50 to 70%,4.85 µM,50.2%,> 300 °C,32.9%,28.5%,20.8%,24.5%,inhibition at 10 µM (K-562): 53.7%; inhibition at 10 µM (MDA-MB-231/ATCC): 31.5%; inhibition at 10 µM (SF-539): 42%; inhibition at 10 µM (MCF7): 43.5%; inhibition at 10 µM (HS 578T): 33.6%
